The assay addresses T1, α4β7 integrin (Homo sapiens, UniProt P13612+P26010).
T1 construct: monitoring the capture of α4β7 integrin expressing cells on a recombinant MadCAM-1 extracellular domain-coated plate; endogenous in cells; host or cells: RPMI8866 cells
T1 sequence (P13612 34-1032): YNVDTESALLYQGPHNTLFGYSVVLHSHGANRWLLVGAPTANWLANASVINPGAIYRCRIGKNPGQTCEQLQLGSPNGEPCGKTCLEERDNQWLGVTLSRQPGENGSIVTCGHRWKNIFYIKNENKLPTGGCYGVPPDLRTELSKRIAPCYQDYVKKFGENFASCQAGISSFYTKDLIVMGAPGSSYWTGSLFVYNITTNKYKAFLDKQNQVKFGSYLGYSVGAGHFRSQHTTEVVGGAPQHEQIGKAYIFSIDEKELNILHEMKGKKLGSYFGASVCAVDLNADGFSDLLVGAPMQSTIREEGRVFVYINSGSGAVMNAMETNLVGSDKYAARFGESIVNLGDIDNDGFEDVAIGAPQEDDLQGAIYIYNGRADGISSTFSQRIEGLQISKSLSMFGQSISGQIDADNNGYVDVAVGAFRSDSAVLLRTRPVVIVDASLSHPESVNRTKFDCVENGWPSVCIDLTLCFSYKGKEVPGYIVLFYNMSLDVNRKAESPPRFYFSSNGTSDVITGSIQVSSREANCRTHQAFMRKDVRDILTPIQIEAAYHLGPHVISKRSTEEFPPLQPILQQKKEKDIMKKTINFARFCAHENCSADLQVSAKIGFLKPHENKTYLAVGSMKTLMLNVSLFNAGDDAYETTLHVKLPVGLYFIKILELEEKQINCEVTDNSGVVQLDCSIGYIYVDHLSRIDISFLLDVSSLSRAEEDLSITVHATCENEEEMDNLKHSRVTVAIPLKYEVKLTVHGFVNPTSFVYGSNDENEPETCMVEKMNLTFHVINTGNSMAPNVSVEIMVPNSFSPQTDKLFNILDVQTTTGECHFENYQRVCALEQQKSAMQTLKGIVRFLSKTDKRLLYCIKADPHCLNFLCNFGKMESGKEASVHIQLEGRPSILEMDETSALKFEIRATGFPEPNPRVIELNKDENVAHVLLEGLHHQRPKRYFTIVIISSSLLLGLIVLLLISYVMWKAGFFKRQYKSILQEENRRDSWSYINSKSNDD
T1 sequence (P26010 20-798): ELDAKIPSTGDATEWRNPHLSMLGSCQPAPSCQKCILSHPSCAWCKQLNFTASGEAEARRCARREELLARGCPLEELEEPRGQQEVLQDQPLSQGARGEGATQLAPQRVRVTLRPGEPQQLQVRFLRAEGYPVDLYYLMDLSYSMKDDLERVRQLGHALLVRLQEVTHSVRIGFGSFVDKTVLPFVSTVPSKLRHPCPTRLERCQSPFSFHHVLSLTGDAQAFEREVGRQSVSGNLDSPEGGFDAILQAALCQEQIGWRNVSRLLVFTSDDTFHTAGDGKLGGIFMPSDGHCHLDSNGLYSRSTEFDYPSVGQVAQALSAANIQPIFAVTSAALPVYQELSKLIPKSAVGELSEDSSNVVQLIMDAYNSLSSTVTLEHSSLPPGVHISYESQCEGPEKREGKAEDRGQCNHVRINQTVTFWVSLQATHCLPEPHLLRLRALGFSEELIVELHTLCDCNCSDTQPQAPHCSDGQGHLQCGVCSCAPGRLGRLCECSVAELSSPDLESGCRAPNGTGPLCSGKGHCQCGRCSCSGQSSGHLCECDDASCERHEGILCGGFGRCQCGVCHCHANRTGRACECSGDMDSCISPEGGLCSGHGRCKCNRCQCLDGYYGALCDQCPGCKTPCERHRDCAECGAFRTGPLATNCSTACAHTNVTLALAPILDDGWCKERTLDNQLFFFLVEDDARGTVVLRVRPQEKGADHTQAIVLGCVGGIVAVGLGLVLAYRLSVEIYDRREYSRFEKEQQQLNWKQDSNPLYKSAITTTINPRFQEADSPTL
In words: α4β7 Integrin Cell Capture Assay. Format: cell-based. As to conditions: capture of α4β7 integrin expressing RPMI8866 cells on recombinant MadCAM-1 extracellular domain-coated plate, DMEM+0.5% FBS+0.5 mM MnCl2. The method in brief: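 RPMI8866 cells in DMEM + 0.5% FBS + 0.5 mM MnCl2 preincubated with compound 1 h at 37 °C, then allowed to bind 30 min at 37 °C to plates coated with MAdCAM-1 extracellular domain (1.0 μg/mL). Cells fixed with glutaraldehyde, Hoechst-stained, imaged and bound cells counted; EC50 from cell count versus concentration.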

Where two headings read alike, the source gives them in different places.

For orientation: EC50 means the concentration that produces a half-maximal response.

As to `Cn1c(=O)c(-c2ccc(C[C@H](NC(=O)c3c(F)cccc3F)C(=O)O)c3ncccc23)cc2ccccc21` [Example 84, (S)-2-(2,6-difluorobenzamido)-3-(1-methyl-2-oxo-1,2-dihydro-[3,5′-biquinolin]-8′-yl)propanoic acid], the EC50 (read-out: EC50 α4β7) amounted to 10.9 nM.

For `CN(C)C(=O)Oc1ccc(C[C@H](NC(=O)c2c(Cl)cccc2Cl)C(=O)O)c2ncccc12` [Example 89, (S)-2-(2,6-dichlorobenzamido)-3-(5-((dimethylcarbamoyl)oxy)quinolin-8-yl)propanoic acid], under “EC50 α4β7 (nM)”, the EC50 was found to be 173 nM.

In the case of `O=C(N[C@@H](Cc1ccc(-c2ccc(F)cc2Cl)c2c(Cl)ccnc12)C(=O)O)c1c(F)cccc1F` [Example 90, (S)-3-(4-chloro-5-(2-chloro-4-fluorophenyl)quinolin-8-yl)-2-(2,6-difluorobenzamido)propanoic acid], the half-maximal effective concentration (EC50) (read-out: EC50 α4β7) was 4280 nM.

For the molecule `O=C(N[C@@H](Cc1ccc(-c2ccc(F)cc2Cl)c2c(-c3ccc(F)cc3Cl)ccnc12)C(=O)O)c1c(F)cccc1F` [Example 91, (S)-3-(4,5-bis(2-chloro-4-fluorophenyl)quinolin-8-yl)-2-(2,6-difluorobenzamido)propanoic acid], the EC50 (read-out: EC50 α4β7) amounted to 686 nM.

As to `COc1cc(F)c(F)cc1-c1ccc(C[C@H](NC(=O)c2c(F)cccc2F)C(=O)O)c2nccc(Cl)c12` [Example 92, (S)-3-(4-chloro-5-(4,5-difluoro-2-methoxyphenyl)quinolin-8-yl)-2-(2,6-difluorobenzamido)propanoic acid], the 50% effective concentration (EC50) (read-out: EC50 α4β7) amounted to 89.4 nM.

Turning to `CCOCc1cc(OC)c(-c2ccc(C[C@H](NC(=O)c3c(F)cccc3F)C(=O)O)c3nccc(Cl)c23)c(OC)c1` [Example 93, (S)-3-(4-chloro-5-(4-(ethoxymethyl)-2,6-dimethoxyphenyl)quinolin-8-yl)-2-(2,6-difluorobenzamido)propanoic acid], for the setting “read-out: EC50 α4β7”, the EC50 was 26.8 nM.

For the molecule `COc1cc(F)c(F)cc1-c1ccc(C[C@H](NC(=O)c2c(Cl)cccc2Cl)C(=O)O)c2nccc(Cl)c12` [Example 94, (S)-3-(4-chloro-5-(4,5-difluoro-2-methoxyphenyl)quinolin-8-yl)-2-(2,6-dichlorobenzamido)propanoic acid], the half-maximal effective concentration (EC50) (read-out: EC50 α4β7) was determined as 111 nM.

`COc1cc(F)c(F)cc1-c1ccc(C[C@H](NC(=O)c2c(Cl)cccc2Cl)C(=O)O)c2nccc(C)c12` [Example 97, (S)-2-(2,6-dichlorobenzamido)-3-(5-(4,5-difluoro-2-methoxyphenyl)-4-methylquinolin-8-yl)propanoic acid]: where the note is “read-out: EC50 α4β7”, the EC50 was 97.2 nM.

Regarding `Cc1ccnc2c(C[C@H](NC(=O)c3c(Cl)cccc3Cl)C(=O)O)ccc(-c3cc4ccccc4n(C)c3=O)c12` [Example 100, (S)-2-(2,6-dichlorobenzamido)-3-(1,4′-dimethyl-2-oxo-1,2-dihydro-[3,5′-biquinolin]-8′-yl)propanoic acid], the EC50 (read-out: EC50 α4β7) was found to be 22.2 nM.

As for `COc1cccc(OC)c1-c1ccc(C[C@H](NC(=O)c2c(F)cc(NS(=O)(=O)c3ccc(-c4ccnc(F)c4)cc3)cc2F)C(=O)O)c2ncccc12` [Example 101, (S)-2-(2,6-difluoro-4-((4-(2-fluoropyridin-4-yl)phenyl)sulfonamido)benzamido)-3-(5-(2,6-dimethoxyphenyl)quinolin-8-yl)propanoic acid], the EC50 (read-out: EC50 α4β7) came out at 1.7 nM.

In the case of `CCOCc1cc(OC)c(-c2ccc(C[C@H](NC(=O)c3c(F)cc(NS(=O)(=O)c4ccc(-c5ccnc(F)c5)cc4)cc3F)C(=O)O)c3ncccc23)c(OC)c1` [Example 102, (S)-2-(2,6-difluoro-4-((4-(2-fluoropyridin-4-yl)phenyl)sulfonamido)benzamido)-3-(5-(4-(ethoxymethyl)-2,6-dimethoxyphenyl)quinolin-8-yl)propanoic acid], the 50% effective concentration (EC50) (read-out: EC50 α4β7) turned out to be 1 nM.

With `COc1cccc(OC)c1-c1ccc(C[C@H](NC(=O)c2c(F)cc(NS(=O)(=O)c3ccc(-c4ccnc(F)c4)cc3)cc2F)C(=O)O)c2ccccc12` [Example 103, (S)-2-(2,6-difluoro-4-((4-(2-fluoropyridin-4-yl)phenyl)sulfonamido)benzamido)-3-(4-(2,6-dimethoxyphenyl)naphthalen-1-yl)propanoic acid], the EC50 (read-out: EC50 α4β7) came out at 1.9 nM.

Consider `COc1cccc(OC)c1-c1ccc(C[C@H](NC(=O)c2c(F)cc(NS(=O)(=O)c3ccc(-n4cncn4)cc3)cc2F)C(=O)O)c2ccccc12` [Example 104, (S)-2-(4-((4-(1H-1,2,4-triazol-1-yl)phenyl)sulfonamido)-2,6-difluorobenzamido)-3-(4-(2,6-dimethoxyphenyl)naphthalen-1-yl)propanoic acid], for which, for the setting “read-out: EC50 α4β7”, the EC50 was found to be 0.8 nM.

As for `CCOCc1cc(OC)c(-c2ccc(C[C@H](NC(=O)c3c(F)cc(NS(=O)(=O)c4ccc(-c5ccnc(F)c5)cc4)cc3F)C(=O)O)c3ccccc23)c(OC)c1` [Example 105, (S)-2-(2,6-difluoro-4-((4-(2-fluoropyridin-4-yl)phenyl)sulfonamido)benzamido)-3-(4-(4-(ethoxymethyl)-2,6-dimethoxyphenyl)naphthalen-1-yl)propanoic acid], the EC50 (read-out: EC50 α4β7) is 0.8 nM.

Regarding `O=C(N[C@@H](Cc1ccc(-c2c(Cl)cc(F)cc2Cl)c2ccccc12)C(=O)O)c1c(F)cccc1F` [Example 106, (S)-3-(4-(2,6-dichloro-4-fluorophenyl)naphthalen-1-yl)-2-(2,6-difluorobenzamido)propanoic acid], the EC50 (read-out: EC50 α4β7) is 196 nM.

`O=C(N[C@@H](Cc1ccc(-c2c(Cl)cc(F)cc2Cl)c2ccccc12)C(=O)O)c1c(Cl)cccc1Cl` [Example 107, (S)-3-(4-(2,6-dichloro-4-fluorophenyl)naphthalen-1-yl)-2-(2,6-dichlorobenzamido)propanoic acid]: under “read-out: EC50 α4β7”, the half-maximal effective concentration (EC50) is 139 nM.

As for `Cn1c(=O)c(-c2ccc(C[C@H](NC(=O)c3c(Cl)cccc3Cl)C(=O)O)c3ccccc23)cc2ccccc21` [Example 108, (S)-2-(2,6-dichlorobenzamido)-3-(4-(1-methyl-2-oxo-1,2-dihydroquinolin-3-yl)naphthalen-1-yl)propanoic acid], the half-maximal effective concentration (EC50) (read-out: EC50 α4β7) stood at 3.4 nM.

As for `O=C(N[C@@H](Cc1ccc(-c2cccc3c2OCCC3)c2ccccc12)C(=O)O)c1c(Cl)cccc1Cl` [Example 111, (S)-3-(4-(chroman-8-yl)naphthalen-1-yl)-2-(2,6-dichlorobenzamido) propanoic acid], the concentration giving a half-maximal response (EC50) (read-out: EC50 α4β7) turned out to be 76.6 nM.

`O=C(N[C@@H](Cc1ccc(-c2cccc3c2OCCC3)c2ccccc12)C(=O)O)c1c(F)cccc1F` [Example 112, (S)-3-(4-(chroman-8-yl)naphthalen-1-yl)-2-(2,6-difluorobenzamido) propanoic acid]: where the note is “read-out: EC50 α4β7”, the EC50 was determined as 53.3 nM.

As to `O=C(N[C@@H](Cc1ccc(-c2ncc3ccccc3c2Br)c2ccccc12)C(=O)O)c1c(Cl)cccc1Cl` [Example 113, (S)-3-(4-(4-bromoisoquinolin-3-yl)naphthalen-1-yl)-2-(2,6-dichlorobenzamido) propanoic acid], the concentration for a half-maximal effect (EC50) (read-out: EC50 α4β7) came out at 12.3 nM.

The record behind these values is patent publication US11179383B2 (Gilead Sciences, Inc., priority 2018, dated 2021).
